According to article PMC10779143, “Collagen-like Osteoclast-Associated Receptor (OSCAR)-Binding Motifs Show a Co-Stimulatory Effect on Osteoclastogenesis in a Peptide Hydrogel System” (International Journal of Molecular Sciences, 2023):
Entries after “also recorded” stand apart in the source; their conditions may differ. Where a SMILES comes first, the peptide text is derived from it. [ ]: non-standard residue; d: D form. Hyp = O=C(O)[C@@H]1C[C@@H](O)CN1

Legend:
[1] = test system: TRAP gene expression, Raw 264.7 cells; assay: qRT-PCR TRAP gene expression, Raw 264.7 cells on hydrogels; assay type: cell-based; details: incorporated in FF/S/RGDH hydrogel, 10 ng/mL hRANKL
Excerpt: (§1) Fmoc-FF/S (Fmoc-diphenylalanine/serine, 1:1 molar ratio) and Fmoc-FF/S/RGD (1:0.5:0.5 molar ratio) peptides were provided by Biogelx Ltd., Edinburgh, UK. Hydroxyapatite (Hap) nanopowder (formula: Ca10(PO4)6(OH)2, with average particle size <200 nm) was purchased from Sigma-Aldrich (Dorset, UK, product code: 677418) and used as received. Hydrogels made up of Fmoc-based peptides and hydroxyapatite were fabricated as described previously. Hap-decorated Fmoc-FF/S/RGD hydrogels (FF/S/RGDH) were tested in combination with OP1_Hyp, OP1_Pro, and OCol1 to evaluate the contribution of OSCAR as a co-stimulatory pathway for OCP differentiation. […]
(§2) The day after hydrogel fabrication, 2 mL of Raw 264.7 cells (4 × 10^5 cells/mL) were seeded on top of FF/S/RGDH hydrogels containing the collagen-like OSCAR-binding peptides (OP1_Hyp, OP1_Pro) or recombinant collagen-like protein (OCol1). […] After 7 days of culture, cell viability on the peptide- or protein-modified FF/S/RGDH hydrogels was evaluated by using a LIVE/DEAD assay (ThermoFisher Scientific, Swindon, UK). […] After 30 min of incubation, cells were washed 3 times in PBS and imaged using a Nikon Eclipse 50i fluorescence microscope (Tokyo, Japan) (emission wavelengths: green channel for live cells: 515 nm; red channel for dead cells: 635 nm; excitation wavelength: 495 nm). […]
(§3) Gene expression of OC markers was evaluated as previously described. […]

Raw 264.7 cells [2] = assay: TRAP staining / osteoclast morphology of Raw 264.7 cells on peptide-coated tissue culture plastic; assay type: cell-based; details: for Osteoclast features / TRAP staining, 10 ng/mL hRANKL / Osteoclast features / TRAP staining, 100 ng/mL hRANKL / Differentiation without hRANKL (TRAP staining): 5 days on coated TCP; for Osteoclast features / TRAP staining, 10 ng/mL hRANKL: 10 ng/mL hRANKL (suboptimal); for Osteoclast features / TRAP staining, 100 ng/mL hRANKL: peptide effect masked by high hRANKL; for Differentiation without hRANKL (TRAP staining): no hRANKL added; for Overall effect on differentiation of Raw 264.7 cells on coated TCP: used as substrate on TCP
Method: (§4) Raw 264.7 cells were cultured and passaged as previously described. Cell adhesion to OP1_Hyp and OP1_Pro was assessed as shown by Barrow et al.. Briefly, 48-well plates were coated with 10 µg/mL of OSCAR-binding peptides overnight at 4 °C. The excess peptide was then removed by washing with PBS before adding 1% BSA to block non-specific binding sites for 1 h at 25 °C. Raw 264.7 cells were then resuspended at a concentration of 2 × 10^5 cells/mL and added to the well. Cells were cultured with different concentrations of human RANKL (hRANKL) (catalogue number: 310-01 from Peprotech, London, UK) (0–100 ng/mL) for up to 5 days to assess the contribution of the OSCAR-binding peptides OP1_Hyp and OP1_Pro to the differentiation of Raw 264.7 cells to mature OCs.
After 5 days of post-culture, Raw 264.7 cells were fixed in 4% PFA for 15 min at room temperature. TRAP was stained following the manufacturer’s protocol and evaluated by light microscopy (ThermoFisher, Swindon, UK). Multinucleated TRAP+ cells containing more than three nuclei were scored as mature OCs.

[3] = test system: OSCAR gene expression, Raw 264.7 cells; assay: qRT-PCR OSCAR gene expression, Raw 264.7 cells on peptide-coated TCP; assay type: cell-based; details: n = 3; for OSCAR expression, 100 ng/mL hRANKL: 5 days vs day 1, relative to GAPDH; for OSCAR expression, 10 ng/mL hRANKL: 5 days; for OSCAR expression, 10 ng/mL hRANKL / OSCAR expression, 0-1 ng/mL hRANKL: relative to GAPDH; for OSCAR expression, 0-1 ng/mL hRANKL: five days
Method: as §4
(§5) Gene expression of OC markers was evaluated as previously described. A StepOne™ Real-Time PCR System (Applied Biosystems, Warrington, UK) was used, with TaqMan probes and a universal PCR Master Mix (Life Technologies, Carlsbad, CA, USA, 4304437) in a total volume of 10 µL. The TaqMan probes for TRAP and OSCAR were Mm00475698_m1 and Mm01338227_g1, respectively. Data were analysed using the 2^−∆Ct method and normalised to the endogenous housekeeping gene GAPDH (Mm99999915_g1). Experiments were performed in triplicate.

[4] = target: T1, recombinant human OSCAR-Fc chimera (Homo sapiens, UniProt Q8IYS5); assay: Surface plasmon resonance (SPR) analysis of the peptide-OSCAR interaction; assay type: binding; details: 25 °C; for Association/dissociation behaviour in sensorgrams: immobilised human OSCAR-Fc, pH 7.4
T1 construct: extracellular region of human OSCAR (Asp19-Asn229, NP_573399); purchased R&D Systems, Bio-Techne 9955-OS
T1 sequence (Q8IYS5 19-229 isoform Q8IYS5-2): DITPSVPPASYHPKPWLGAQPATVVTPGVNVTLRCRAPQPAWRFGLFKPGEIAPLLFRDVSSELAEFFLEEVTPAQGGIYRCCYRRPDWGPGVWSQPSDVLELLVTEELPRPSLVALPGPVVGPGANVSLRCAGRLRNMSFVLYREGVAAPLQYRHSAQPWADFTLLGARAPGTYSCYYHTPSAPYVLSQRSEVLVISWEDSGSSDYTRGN
Method: Surface plasmon resonance (SPR) was used to determine the binding affinity between OP1_Hyp or OP1_Pro and a recombinant human OSCAR-Fc chimera made from the extracellular region of human OSCAR (Asp19-Asn229, NP_573399) and the Fc domain from human IgG1 (Pro100-Lys330, P01857-1). A kinetic analysis was performed with immobilised OSCAR-Fc, OP1_Hyp, and OP1_Pro as analytes. A Langmuir 1:1 model was used to perform the kinetic analysis. This model is based on a simple interaction between ligand and analytes where a 1:1 molar complex is formed at equilibrium, i.e., A + B ⇄ AB. The kinetics of the reaction are determined by the association and dissociation rate constants (ka and kd, respectively), with an overall affinity constant (KD) given by KD = kd/ka.
SPR analyses were carried out on a Biacore™ T200 (Cytiva) using a Series S CM5 sensor chip with an assay running buffer of 10 mM PBS, 150 mM NaCl, 0.05% Tween20, pH 7.4. Reference and active flow cells were activated by injecting 70 μL of a 1:1 mixture of 0.2 M 1-ethyl-3-(3-dimethylaminopropyl)-carbodiimide (EDC) and 0.1 M N-hydroxysuccinimide (NHS) at 10 µL/min. Recombinant human OSCAR-Fc chimera (R&D Systems, Bio-Techne, Minneapolis, MN, USA, 9955-OS) was immobilised onto the active flow cell at 20 µg/mL in 10 mM sodium acetate pH 5.0 at 10 µL/min to 6880 response units (RU). Reference and active flow cells were blocked using 1 M ethanolamine, pH 8, at a flow rate of 10 µL/min. For kinetic and equilibrium binding analysis, OP1_Hyp and OP1_Pro peptides were flowed at 25 °C active and reference flow cells at 30 µL/min in assay running buffer at peptide concentrations of 5000—0 nM (OP1_Hyp) and 40,000—0 nM (OP1_Pro), using a dilution series. Surfaces were regenerated with a 10 s injection of 0.1 M glycine, pH 2.0. Data sets were analysed with the built-in BiaEvaluation software (version 4.1). The models used for analysis were the Langmuir 1:1 binding model and the steady-state analysis model. Data are presented as the mean and standard error of the mean (SEM) of triplicate runs.

Raw 264.7 cells [5] = assay: F-actin staining / osteoclast-like morphology and differentiation of Raw 264.7 cells on hydrogels; assay type: cell-based; details: 10 ng/mL hRANKL
[6] = test system: TRAP gene expression, Raw 264.7 cells; assay: qRT-PCR TRAP gene expression, Raw 264.7 cells on peptide-coated TCP; assay type: cell-based; details: for TRAP expression, 100 ng/mL hRANKL: 5 days vs day 1, relative to GAPDH; for TRAP expression, 100 ng/mL hRANKL / TRAP expression, 0-1 ng/mL hRANKL: n = 3; for TRAP expression, 10 ng/mL hRANKL: 5 days, n = 3, lower than with 100 ng/mL hRANKL; for TRAP expression, 10 ng/mL hRANKL / TRAP expression, 0-1 ng/mL hRANKL: relative to GAPDH; for TRAP expression, 0-1 ng/mL hRANKL: five days
Method: as §4, §5

[7] = CD analysis of secondary structure (collagen triple helix) and refolding; assay type: physicochemical; details: CD Buffer pH 7.4; for Triple helical features (positive ellipticity band) at 70 °C: CD at 70 °C; for Secondary structure by CD: CD spectra 190-260 nm at 10 °C, 0.5 mg/mL peptides, 0.2 mg/mL OCol1; for Refolding of the triple helix after denaturation: cooling from 70 °C to 10 °C, approximately 30 min, 210 µM peptides, 12 µM OCol1
Method: Secondary structures of OP1_Hyp, OP1_Pro, and OCol1 were analysed by circular dichroism (CD) spectroscopy using a Jasco® J-810 spectropolarimeter (UCI, Irvine, CA, USA) equipped with a Peltier temperature controller. OP1_Hyp and OP1_Pro were resuspended up to a concentration of 0.5 mg/mL in a CD transparent buffer (10 mM K2HPO4, 10 mM KH2PO4, 150 mM KF, pH 7.4, CD Buffer) [15] and kept for 24 h at 4 °C to allow for the formation of the collagen triple helical structure. OCol1 was exchanged to CD Buffer using a PD 10 disposable desalting column (GE17-0851-01, Merck, Feltham, UK). Briefly, the column was equilibrated with five column volumes of CD Buffer before the addition of OCol1 to the storage buffer. After flow-through collection, 0.5 mL fractions were collected into 1.5 mL Eppendorf tubes. The OCol1 elution fractions were quickly analysed by CD, and the one with the highest concentration (0.2 mg/mL) was used. CD spectra were measured between 190 nm and 260 nm at 10 °C using a 1 mm path-length CD-matched quartz cuvette (Starna Scientific, Ilford, UK). Data were collected every 0.2 nm with a 1 nm bandwidth. Spectral baselines were corrected by subtracting the spectrum of CD Buffer (blank) collected under the same conditions. Additionally, the thermal stability of OP1_Hyp, OP1_Pro, and OCol1 was analysed. Thermal transition profiles were recorded between 10 °C and 60 °C (OP1_Hyp and OP1_Pro) or 70 °C (OCol1) at 222 nm with a data pitch of 0.2 °C, a bandwidth of 1 nm, a detector response time of 32 s, and a temperature slope of 1 °C/min. Samples were cooled back to 10 °C after the different transitions had been completed, and final spectra were recorded at that temperature. Ellipticity in millidegrees was converted to mean residue molar ellipticity Θ (degree cm^2 dmol^−1) by normalising for the number of residues on each peptide or protein [23].

[8] = test system: OSCAR gene expression, Raw 264.7 cells; assay: qRT-PCR OSCAR gene expression, Raw 264.7 cells on hydrogels; assay type: cell-based; details: 10 ng/mL hRANKL, relative to GAPDH, n = 3
Excerpt: as §1, §2, §3

| Compound | TRAP expression, day 3 to day 7 (comparison with literature) [1] | Osteoclast features / TRAP staining, 10 ng/mL hRANKL (Raw 264.7 cells [2]) | Osteoclast features / TRAP staining, 100 ng/mL hRANKL (Raw 264.7 cells [2]) | Differentiation without hRANKL (TRAP staining) (Raw 264.7 cells [2]) | OC differentiation effect, lower suboptimal hRANKL, comparison of peptides (Raw 264.7 cells [2]; coated TCP, lower, suboptimal hRANKL) | Overall effect on differentiation of Raw 264.7 cells on coated TCP (Raw 264.7 cells [2]) | OSCAR expression, 100 ng/mL hRANKL [3] | OSCAR expression, 10 ng/mL hRANKL [3] | OSCAR expression, 0-1 ng/mL hRANKL [3] | Association/dissociation behaviour in sensorgrams [4] | Differentiation of Raw 264.7 cells to OCs on collagen-modified hydrogels (Raw 264.7 cells [5]; 7 days, incorporated in FF/S/RGDH hydrogel) | OC-like features, improvement vs unmodified hydrogels (Raw 264.7 cells [5]; hydrogels) | TRAP expression, 100 ng/mL hRANKL [6] | TRAP expression, 10 ng/mL hRANKL [6] | TRAP expression, 0-1 ng/mL hRANKL [6] | Triple helical features (positive ellipticity band) at 70 °C [7] | Secondary structure by CD [7] | Refolding of the triple helix after denaturation [7] | OSCAR expression change, day 3 to day 7 [8] | Retention of OSCAR binding on replacing Hyp with Pro ([4]; Hyp at position 3 replaced with Pro) |
| --- | --- | --- | --- | --- | --- | --- | --- | --- | --- | --- | --- | --- | --- | --- | --- | --- | --- | --- | --- | --- |
| CC(=O)NCC(=O)N1CCC[C@H]1C(=O)N1C[C@H](O)C[C@H]1C(=O)NCC(=O)N1CCC[C@H]1C(=O)N1C[C@H](O)C[C@H]1C(=O)NCC(=O)N1CCC[C@H]1C(=O)N1C[C@H](O)C[C@H]1C(=O)NCC(=O)N[C@@H](C)C(=O)N1C[C@H](O)C[C@H]1C(=O)NCC(=O)N1CCC[C@H]1C(=O)N[C@@H](C)C(=O)NCC(=O)N[C@@H](Cc1ccccc1)C(=O)N[C@@H](C)C(=O)NCC(=O)N1CCC[C@H]1C(=O)N1C[C@H](O)C[C@H]1C(=O)NCC(=O)N1CCC[C@H]1C(=O)N1C[C@H](O)C[C@H]1C(=O)NCC(=O)N1CCC[C@H]1C(=O)N1C[C@H](O)C[C@H]1C(N)=O [OP1_Hyp] (Ac-GP[Hyp]GP[Hyp]GP[Hyp]GA[Hyp]GPAGFAGP[Hyp]GP[Hyp]GP[Hyp]-NH2) | increased significantly between day 3 and day 7 of culture | more cells showing OC-like features such as multinucleation; also recorded: still showed signs of osteoclastogenesis | typical OC features | not able to trigger any differentiation on their own | much more evident for OP1_Hyp compared to OP1_Pro | positive effect on differentiation | significantly higher compared to day 1 | still significantly higher | either expressed at lower amounts or did not change significantly after five days of culture | a progressive binding phase to OSCAR with a slow release at all the concentrations tested | the effect was more evident with OP1_Hyp; also recorded: positive effect on osteoclastogenesis | greater bioactivity (i.e., higher nuclei/cell distribution, increased cell diameter) | significantly higher after 5 days | TRAP expression was lower | either expressed at lower amounts or did not change significantly after five days of culture | disappeared from the CD spectra | a band of positive ellipticity with a maximum at ~220 nm and a deep band of negative ellipticity with a minimum at ~198 nm, previously associated with the typical conformation of the collagen triple helix | partial recovery of the collagen structure | increased significantly between day 3 and day 7 of culture |  |
| Ac-GPOGPOGPOGAPGPAGFAGPOGPOGPO-NH2 [OP1_Pro] |  | still showed signs of osteoclastogenesis | typical OC features | not able to trigger any differentiation on their own |  | positive effect on differentiation | significantly higher compared to day 1 | still significantly higher | either expressed at lower amounts or did not change significantly after five days of culture | both association and dissociation phases occurred very quickly |  |  | significantly higher after 5 days | TRAP expression was lower | either expressed at lower amounts or did not change significantly after five days of culture | disappeared from the CD spectra | a band of positive ellipticity with a maximum at ~220 nm and a deep band of negative ellipticity with a minimum at ~198 nm, previously associated with the typical conformation of the collagen triple helix | partial recovery of the collagen structure |  | OSCAR binding is not abolished |
